Laboratory results published in article PMC3853718 (Journal of Translational Medicine, 2013).

System: subjects with advanced malignancies
Assay: Phase 1 dose escalation: toxicity, safety and tolerability (DLT, MAD, RP2D, AEs)
Protocol: Subjects continued on treatment until there was disease progression, unacceptable toxicity, or the subject withdrew consent. The trial employed an accelerated titration design [16] starting at a dose of 0.33 mg/m^2 (one-sixth of the highest nontoxic dose in dogs).
the dose was doubled in sequential subjects until a DLT was observed or a subject experienced grade 2 toxicity [16]. In the case of an observed grade 2 toxicity, a second subject was enrolled at the same dose level. If the second subject also experienced a grade 2 toxicity, 2 additional subjects were accrued at that dose level for a total of 4 subjects. […] Each subject was allocated to only a single dose level of drug. Dose delay or modification was permitted based on laboratory and clinical assessment performed on the day of treatment.
Dose-limiting toxicities were determined during the first cycle for each dose level. A DLT was defined as any grade 3 or 4 hematologic toxicity lasting for at least 1 week, or as any grade 3 or 4 nonhematologic toxicity. […] Normal alkaline phosphatase level (< grade 1) at screening that rose to greater than or equal to grade 3; grade 1 or 2 alkaline phosphatase level at screening that rose to grade 4; grade 1 or 2 aspartate aminotransferase (AST) and/or alanine aminotransferase (ALT) levels at screening that doubled from baseline to become greater than or equal to grade 3; and any other abnormal nonhematology laboratory value greater than or equal to grade 3 that required medical intervention to treat, led to hospitalization, or persisted for at least 1 week were also considered DLTs.
Adverse events were graded based on the National Cancer Institute Common Terminology Criteria for Adverse Events (NCI CTCAE version 3.0) and were coded using the Medical Dictionary for Regulatory Activities (MedDRA version 13.0).

CCc1cnn2c(NCc3ccc[n+]([O-])c3)cc(N3CCCC[C@H]3CCO)nc12 [dinaciclib]
4 (80) n (%): TEAE: Nausea (14 mg/m^2 (n = 5), All grades)
1(9) n (%): TEAE: Hyperbilirubinemia (12 mg/m^2 (n = 11), Grade 3–4)
1 (20) n (%): TEAE: Asthenia (14 mg/m^2 (n = 5), All grades) | TEAE: Back pain (14 mg/m^2 (n = 5), All grades) | TEAE: Constipation (14 mg/m^2 (n = 5), All grades) | TEAE: Decreased appetite (14 mg/m^2 (n = 5), All grades) | TEAE: Dizziness (14 mg/m^2 (n = 5), All grades) | TEAE: Dyspnea (14 mg/m^2 (n = 5), All grades) | TEAE: Hyperglycemia (14 mg/m^2 (n = 5), All grades) | TEAE: Hyperuricemia (14 mg/m^2 (n = 5), All grades) | TEAE: Increased ALP (14 mg/m^2 (n = 5), All grades) | TEAE: Increased AST (14 mg/m^2 (n = 5), All grades)
0 n (%): TEAE: Hyperuricemia (10 mg/m^2 (n = 3), Grade 3–4) | TEAE: Hypokalemia (10 mg/m^2 (n = 3), Grade 3–4) | TEAE: Hypophosphatemia (10 mg/m^2 (n = 3), Grade 3–4) | TEAE: Increased ALP (10 mg/m^2 (n = 3), Grade 3–4) | TEAE: Increased ALT (10 mg/m^2 (n = 3), Grade 3–4) | TEAE: Increased AST (10 mg/m^2 (n = 3), Grade 3–4) | TEAE: Nausea (10 mg/m^2 (n = 3), Grade 3–4) | TEAE: Peripheral edema (10 mg/m^2 (n = 3), Grade 3–4) | TEAE: Pyrexia (10 mg/m^2 (n = 3), Grade 3–4) | TEAE: Urinary tract infection (10 mg/m^2 (n = 3), Grade 3–4) | TEAE: Vomiting (10 mg/m^2 (n = 3), Grade 3–4) | TEAE: Weight decreased (10 mg/m^2 (n = 3), Grade 3–4) | TEAE: Abdominal pain (12 mg/m^2 (n = 11), All grades) | TEAE: Dehydration (12 mg/m^2 (n = 11), All grades) | TEAE: Dyspnea (12 mg/m^2 (n = 11), All grades) | TEAE: Weight decreased (12 mg/m^2 (n = 11), All grades) | TEAE: Abdominal distension (12 mg/m^2 (n = 11), Grade 3–4) | TEAE: Abdominal pain (12 mg/m^2 (n = 11), Grade 3–4) | TEAE: Asthenia (12 mg/m^2 (n = 11), Grade 3–4) | TEAE: Back pain (12 mg/m^2 (n = 11), Grade 3–4) | TEAE: Constipation (12 mg/m^2 (n = 11), Grade 3–4) | TEAE: Cough (12 mg/m^2 (n = 11), Grade 3–4) | TEAE: Decreased appetite (12 mg/m^2 (n = 11), Grade 3–4) | TEAE: Dehydration (12 mg/m^2 (n = 11), Grade 3–4) | TEAE: Diarrhea (12 mg/m^2 (n = 11), Grade 3–4) | TEAE: Dizziness (12 mg/m^2 (n = 11), Grade 3–4) | TEAE: Dyspnea (12 mg/m^2 (n = 11), Grade 3–4) | TEAE: Fatigue (12 mg/m^2 (n = 11), Grade 3–4) | TEAE: Flatulence (12 mg/m^2 (n = 11), Grade 3–4) | TEAE: Increased ALP (12 mg/m^2 (n = 11), Grade 3–4) | TEAE: Increased ALT (12 mg/m^2 (n = 11), Grade 3–4) | TEAE: Nausea (12 mg/m^2 (n = 11), Grade 3–4) | TEAE: Peripheral edema (12 mg/m^2 (n = 11), Grade 3–4) | TEAE: Pyrexia (12 mg/m^2 (n = 11), Grade 3–4) | TEAE: Urinary tract infection (12 mg/m^2 (n = 11), Grade 3–4) | TEAE: Vomiting (12 mg/m^2 (n = 11), Grade 3–4) | TEAE: Weight decreased (12 mg/m^2 (n = 11), Grade 3–4) | TEAE: Abdominal distension (14 mg/m^2 (n = 5), All grades) | TEAE: Abdominal pain (14 mg/m^2 (n = 5), All grades) | TEAE: Cough (14 mg/m^2 (n = 5), All grades) | TEAE: Diarrhea (14 mg/m^2 (n = 5), All grades) | TEAE: Fatigue (14 mg/m^2 (n = 5), All grades) | TEAE: Flatulence (14 mg/m^2 (n = 5), All grades) | TEAE: Hypokalemia (14 mg/m^2 (n = 5), All grades) | TEAE: Hypophosphatemia (14 mg/m^2 (n = 5), All grades) | TEAE: Increased ALT (14 mg/m^2 (n = 5), All grades) | TEAE: Peripheral edema (14 mg/m^2 (n = 5), All grades) | TEAE: Pyrexia (14 mg/m^2 (n = 5), All grades) | TEAE: Urinary tract infection (14 mg/m^2 (n = 5), All grades) | TEAE: Weight decreased (14 mg/m^2 (n = 5), All grades)
2 (40) n (%): TEAE: Anemia (14 mg/m^2 (n = 5), All grades) | TEAE: Hyperbilirubinemia (14 mg/m^2 (n = 5), All grades) | TEAE: Vomiting (14 mg/m^2 (n = 5), All grades)
2 (18) n (%): TEAE: Constipation (12 mg/m^2 (n = 11), All grades) | TEAE: Cough (12 mg/m^2 (n = 11), All grades) | TEAE: Decreased appetite (12 mg/m^2 (n = 11), All grades) | TEAE: Hypokalemia (12 mg/m^2 (n = 11), All grades) | TEAE: Hypophosphatemia (12 mg/m^2 (n = 11), All grades) | TEAE: Hyperglycemia (12 mg/m^2 (n = 11), Grade 3–4) | TEAE: Hyperuricemia (12 mg/m^2 (n = 11), Grade 3–4) | TEAE: Hypophosphatemia (12 mg/m^2 (n = 11), Grade 3–4) | TEAE: Neutropenia (12 mg/m^2 (n = 11), Grade 3–4)
1 (33) n (%): TEAE: Hyperglycemia (10 mg/m^2 (n = 3), Grade 3–4) | TEAE: Neutropenia (10 mg/m^2 (n = 3), Grade 3–4) | TEAE: Subjects with any AE (10 mg/m^2 (n = 3), Grade 3–4)
3 (27) n (%): TEAE: Hyperbilirubinemia (12 mg/m^2 (n = 11), All grades) | TEAE: Hyperuricemia (12 mg/m^2 (n = 11), All grades) | TEAE: Increased ALT (12 mg/m^2 (n = 11), All grades) | TEAE: Nausea (12 mg/m^2 (n = 11), All grades) | TEAE: Peripheral edema (12 mg/m^2 (n = 11), All grades) | TEAE: Vomiting (12 mg/m^2 (n = 11), All grades)
6 (55) n (%): TEAE: Anemia (12 mg/m^2 (n = 11), All grades)
8 (73) n (%): TEAE: Subjects with any AE (12 mg/m^2 (n = 11), Grade 3–4)
1 (9) n (%): TEAE: Abdominal distension (12 mg/m^2 (n = 11), All grades) | TEAE: Back pain (12 mg/m^2 (n = 11), All grades) | TEAE: Diarrhea (12 mg/m^2 (n = 11), All grades) | TEAE: Dizziness (12 mg/m^2 (n = 11), All grades) | TEAE: Flatulence (12 mg/m^2 (n = 11), All grades) | TEAE: Anemia (12 mg/m^2 (n = 11), Grade 3–4) | TEAE: Hypokalemia (12 mg/m^2 (n = 11), Grade 3–4) | TEAE: Increased AST (12 mg/m^2 (n = 11), Grade 3–4)
5 (100) n (%): TEAE: Subjects with any AE (14 mg/m^2 (n = 5), All grades)
3 (60) n (%): TEAE: Dehydration (14 mg/m^2 (n = 5), All grades) | TEAE: Neutropenia (14 mg/m^2 (n = 5), All grades)
4 (36) n (%): TEAE: Asthenia (12 mg/m^2 (n = 11), All grades) | TEAE: Fatigue (12 mg/m^2 (n = 11), All grades) | TEAE: Hyperglycemia (12 mg/m^2 (n = 11), All grades) | TEAE: Increased ALP (12 mg/m^2 (n = 11), All grades) | TEAE: Increased AST (12 mg/m^2 (n = 11), All grades) | TEAE: Neutropenia (12 mg/m^2 (n = 11), All grades) | TEAE: Pyrexia (12 mg/m^2 (n = 11), All grades) | TEAE: Urinary tract infection (12 mg/m^2 (n = 11), All grades)
11 (100) n (%): TEAE: Subjects with any AE (12 mg/m^2 (n = 11), All grades)
